Reference: patent publication US7378495B2, “PTH-rP related peptide cancer therapeutics” (Pevion Biotech, Ltd., priority 2002, dated 2008)
Marks after values point to notes of the source that are not given here. Bridges are numbered along the chain shown (N, C = ends). Where no end group is shown, it is not given here.

Columns and labels:
[1] = 0.1 mg sc. in the dorsal neck, after 6 hours, three mice
HLA-A(*)02.01 molecules = HLA-A(*)02.01 molecules (Homo sapiens, UniProt P04439, D140Y/D185E/D98H/E176V/E277Q/G131W/G231S/I119V/I121R/I166T/I218V/L300P/L318F/N151K/N90K/P208A/P217A/Q86G/Q94H/R138H/R169H/T345S); experiment: T2-A2 HLA up-regulation test (HLA-A2.1 class I up-regulation, peptide binding); settings: positive cut-off 287.116
Description: T2-A2, HLA up-regulation test: binding of the PTR-2 and PTR-4 peptides to HLA-A(*)02.01 molecules was evaluated by means of flow cytometry using T2 cells and the method described by Nijman et al. In this assay, increased stability (the accumulation of HLA-A(*)02.01 molecules on the surface of T2 cells as a consequence of peptide binding) is measured in terms of the increased binding of the antibody directed against HLA-A(*)02.01. Briefly, 10^6 T2 cells in serum-free IMDM were incubated overnight with escalating concentrations (0, 5, 25 and 50 μg/ml) of the PTR peptides in 24-well culture plates at 37° C. in an atmosphere containing 5% CO2. The cells were then washed two times with DPBS, and subsequently incubated for one hour with an anti-HLA-A(*)02.01 (A2.69) specific monoclonal antibody (A2.69, #189HA-1; One Lambda, Inc., Canoga Park, Calif.), using 10 μl of the recommended dilution per 10^6 cells. UPC-10 (Cappel/Organon Teknika Corp) was used as an isotype control. The cells were again washed two times with DPBS, incubated with 100 μl of a 1:100 dilution of fluorescein isothiocyanate (FITC)-labeled anti-mouse IgG (Becton Dickinson Corp.), and analyzed by means of FACScan and single-color analysis. The cells were kept at 4° C. during all of the manipulations unless otherwise stated.
Peptide selection and HLA-A(*)02.01 binding: In order to test the immunogenicity of PTH-rP protein and test possible tolerance of human T cell repertoire specific for it, the PTH-rP molecules were screened with the “Parker” algorithm (BIMAS) in order to predict peptides having high theoretical HLA-A(*)02.01 binding motifs. The functional binding of the two peptides to HLA-A(*)02.01 molecules was tested in vitro by means of the T2 test. PTH-rP peptides with similar or overlapping amino acid homology to the analogue sequences of parathyroid hormone (PTH) were cut out of the screening. The peptide sequences included in the first 36 amino acids (pro-peptide) were ignored although theoretically predicted with higher affinity for the HLA-A(*)02.01 molecule. […]

| T2 binding (HLA-A(*)02.01 molecules; peptide 5 μg/ml) | T2 binding (HLA-A(*)02.01 molecules; peptide 25 μg/ml) | T2 binding (HLA-A(*)02.01 molecules; peptide 50 μg/ml) | Substance | Serum Ca (hypocalcemia induced by positive control) [1] [mmol/L] |
| --- | --- | --- | --- | --- |
| – | – | – | Human synthetic thyreocalcitonin: Sigma-Aldrich # T3535, positive control capable to induce hypocalcemia (CGNLSTCMLGTYTQDFNKFHTFPQTAIGVGAP-NH2; disulfide 1-7; ends not checked; UniProt P01258 85-116, looked up) | 0.64 ± 0.645 |
| 240^d relative fluorescence values | 352^e relative fluorescence values | 502.9^f relative fluorescence values | YLSGANLNL [CAP-1] | – |
